# Results published in article PMC9945734 (BMC Medicine, 2023).
# Tested on: PC-3-KQ and PC-3-KR cells
# Assay: RNA-sequencing and differential gene expression
# Type: cell-based, human
# Conditions: for logFC: KQ-Control vs KQ-NTZ
smiles,measurement,setting,value
CC(=O)Oc1ccccc1C(=O)Nc1ncc([N+](=O)[O-])s1 [Nitazoxanide],change of NTZ treatment,gene ANKRD36C,down
same,logFC,gene ANKRD37,0.9125
same,logFC,gene ANXA8,0.7906
same,change of NTZ treatment,gene ANXA8L1,down
same,change of NTZ treatment,gene ARG2,up
same,logFC,gene ARG2,2.138
same,change of NTZ treatment,gene ARL10,down
same,change of NTZ treatment,gene ARSK,up
same,logFC,gene ARSK,0.7653
same,change of NTZ treatment,gene ASB2,down
same,logFC,gene ATP2A3,1.284
same,change of NTZ treatment,gene BRINP2,down
same,change of NTZ treatment,gene BTBD11,down
same,change of NTZ treatment,gene BTN3A3,up
same,logFC,gene CAPN12,0.767
same,change of NTZ treatment,gene CAPSL,down
same,logFC,gene CCNA1,0.9046
same,change of NTZ treatment,gene CEP19,down
same,logFC,gene CFB,0.9221
same,change of NTZ treatment,gene CNTNAP3B,down
same,logFC,gene COL4A3,2.258
same,logFC,gene COL4A4,0.8129
same,change of NTZ treatment,gene CSF1R,up
same,change of NTZ treatment,gene CXCL5,down
same,change of NTZ treatment,gene CYP1B1,up
same,change of NTZ treatment,gene CYP2E1,up
same,change of NTZ treatment,gene CYP8B1,up
same,logFC,gene CYP8B1,1.238
same,change of NTZ treatment,gene CYSTM1,up
same,logFC,gene CYSTM1,0.6246
same,change of NTZ treatment,gene DEPTOR,down
same,change of NTZ treatment,gene DISP1,up
same,logFC,gene DISP1,0.6346
same,change of NTZ treatment,gene DMPK,up
same,logFC,gene DMPK,0.6319
same,change of NTZ treatment,gene DRP2,down
same,change of NTZ treatment,gene ECM2,down
same,change of NTZ treatment,gene ESPN,up
same,logFC,gene FA2H,1.574
same,change of NTZ treatment,gene FAM83D,down
same,logFC,gene FAM178B,1.11
same,change of NTZ treatment,gene FAM186B,down
same,change of NTZ treatment,gene FANCI,down
same,change of NTZ treatment,gene FANCL,down
same,change of NTZ treatment,gene FCGBP,down
same,logFC,gene FER1L6,0.6222
same,logFC,gene FIBCD1,1.28
same,change of NTZ treatment,gene FLI1,down
same,change of NTZ treatment,gene FLRT1,down
same,change of NTZ treatment,gene FRY,up
same,logFC,gene FRY,1.204
same,change of NTZ treatment,gene FSD2,down
same,logFC,gene FTH1,1.218
same,logFC,gene FUT3,0.7626
same,logFC,gene FXYD3,0.8317
same,change of NTZ treatment,gene FZD4,down
same,logFC,gene GALNT12,0.8862
same,change of NTZ treatment,gene GCNT3,up
same,logFC,gene GCNT3,2.701
same,logFC,gene GDPD3,1.109
same,change of NTZ treatment,gene HAS3,down
same,change of NTZ treatment,gene HSPB8,up
same,logFC,gene HSPB8,1.784
same,change of NTZ treatment,gene IFITM10,up
same,change of NTZ treatment,gene IGDCC4,up
same,logFC,gene IGDCC4,1.493
same,change of NTZ treatment,gene IGF2BP1,down
same,change of NTZ treatment,gene IL1RN,up
same,logFC,gene IL36RN,0.6398
same,change of NTZ treatment,gene INHBA,down
same,change of NTZ treatment,gene KDELR2,up
same,logFC,gene KDELR2,0.621
same,logFC,gene KIAA0319,2.322
same,change of NTZ treatment,gene KIAA1755,down
same,logFC,gene KLHDC7B,1.286
same,logFC,gene LOC105374299,1.732
same,change of NTZ treatment,gene LONRF2,down
same,logFC,gene LRRK1,0.8715
same,change of NTZ treatment,gene LTB,down
same,change of NTZ treatment,gene MAP2,up
same,logFC,gene MAP2,0.8904
same,change of NTZ treatment,gene MCM4,down
same,change of NTZ treatment,gene MEF2C,up
same,change of NTZ treatment,gene MEOX1,down
same,change of NTZ treatment,gene METRNL,up
same,logFC,gene MFSD2A,0.6152
same,logFC,gene MINAR1,1.165
same,change of NTZ treatment,gene MMP9,down
same,change of NTZ treatment,gene MROH8,down
same,change of NTZ treatment,gene MUC4,up
same,logFC,gene MUC4,1.575
same,logFC,gene MVP,0.7778
same,change of NTZ treatment,gene MYH7B,down
same,change of NTZ treatment,gene NAV1,up
same,logFC,gene NAV1,1.226
same,logFC,gene NECTIN4,1.852
same,change of NTZ treatment,gene NKD1,down
same,logFC,gene NLRC5,0.8508
same,change of NTZ treatment,gene NR4A2,up
same,change of NTZ treatment,gene NT5E,up
same,logFC,gene NT5E,0.5964
same,change of NTZ treatment,gene PCDH18,down
same,logFC,gene PDGFA,0.7622
same,change of NTZ treatment,gene PDZK1,up
same,logFC,gene PDZK1,0.8579
same,change of NTZ treatment,gene PGAM4,down
same,change of NTZ treatment,gene PHOSPHO2,down
same,change of NTZ treatment,gene PIANP,down
same,logFC,gene PKIA,0.8539
same,change of NTZ treatment,gene PLEKHG1,up
same,logFC,gene PRKAR1B,0.8008
same,change of NTZ treatment,gene PRKDC,down
same,change of NTZ treatment,gene PROS1,up
same,logFC,gene PROS1,0.9134
same,change of NTZ treatment,gene PRR16,down
same,change of NTZ treatment,gene PRRT4,down
same,change of NTZ treatment,gene RBL1,down
same,logFC,gene RMDN2,0.9051
same,change of NTZ treatment,gene RND1,up
same,change of NTZ treatment,gene RP1L1,down
same,change of NTZ treatment,gene S100A6,up
same,logFC,gene S100A6,0.6427
same,logFC,gene SAT1,0.7952
same,logFC,gene SDCBP2,1.238
same,change of NTZ treatment,gene SERPINA5,down
same,change of NTZ treatment,gene SERPINB3,down
same,change of NTZ treatment,gene SERPINB4,down
same,change of NTZ treatment,gene SERPIND1,down
same,change of NTZ treatment,gene SGK3,up
same,change of NTZ treatment,gene SHISA3,down
same,change of NTZ treatment,gene SLC41A2,up
same,logFC,gene SLC41A2,0.8444
same,change of NTZ treatment,gene SLFN11,up
same,change of NTZ treatment,gene SMCO4,up
same,change of NTZ treatment,gene SPOCK2,up
same,logFC,gene SPOCK2,1.756
same,logFC,gene SRPX,0.5983
same,logFC,gene STK32A,1.274
same,logFC,gene SYN3,1.227
same,logFC,gene TBX2,0.6055
same,change of NTZ treatment,gene TCN1,down
same,change of NTZ treatment,gene TJP3,up
same,logFC,gene TJP3,0.6134
same,change of NTZ treatment,gene TMEM140,up
same,change of NTZ treatment,gene TMEM269,up
same,logFC,gene TMEM269,0.7715
same,logFC,gene TMOD1,1.793
same,logFC,gene TMPRSS2,1.205
same,change of NTZ treatment,gene TNFRSF6B,down
same,change of NTZ treatment,gene TNFRSF11B,down
same,logFC,gene TNFSF14,1.643
same,change of NTZ treatment,gene TRIM31,up
same,logFC,gene TRIM31,1.207
same,change of NTZ treatment,gene TTC9,up
same,change of NTZ treatment,gene TTC30B,down
same,logFC,gene UGT2B7,1.608
same,logFC,gene WHRN,0.869
same,logFC,gene WNT4,1.78
same,change of NTZ treatment,gene WNT9A,up
same,change of NTZ treatment,gene ZNF302,down
